Source: the METLIN SMRT retention time set (Domingo-Almenara et al. 2019)

Experiment: gradient 5% acetonitrile 3 min, to 50% in 2 min, to 85% in 15 min, held 3 min, 100 µL/min
Details: column: Zorbax Extend-C18 2.1 x 50 mm; eluents: water / acetonitrile, 0.1% formic acid
Procedure, shortened: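 Each retention time is based on an adduct peak selected computationally and verified by manual inspection. Measurements used HPLC–quadrupole time-of-flight mass spectrometry in positive and negative ionization mode on mixtures of ~100 pure standards. Chromatography ran on a Zorbax Extend-C18 column (2.1 × 50 mm, 1.8 μm) at 100 μL/min with water and acetonitrile, each containing 0.1% formic acid, and dead and dwell volumes of 40 μL and 900 μL.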

RP-LC retention time [s] | SMILES
683 | CCc1cc(C(=O)Nc2ccc(N3CCOCC3)cc2)nc2cc(-c3ccco3)nn12
599 | CCCC(=O)Nc1ccc(CCc2nc3ccc(C(=O)NC4CC4)cc3[nH]2)cc1
832 | O=C(NCc1nc(-c2ccc(NS(=O)(=O)c3ccccc3)cc2)no1)c1cccs1
626 | CCn1cc(CCN2CCC(C(=O)Nc3ccc4c(c3)OCCO4)CC2)c2cccnc21
601 | Clc1ccc(-c2nc(NCc3cccnc3)c3ccccc3n2)cc1
636 | O=C(Cc1csc(Nc2cccc(C(F)(F)F)c2)n1)NCc1ccco1
625 | CC(C)(C)OC(=O)Nc1cnc(C(=O)O)cn1
950 | Cc1cc(-c2nnc(-c3ccc(F)cc3)o2)c(C)n1CC(=O)NCc1ccccc1F
658 | CCc1nccn1Cc1noc(-c2cccc(C)c2)n1
1320 | Cc1sc(-c2cc(C(F)(F)F)on2)cc1S(=O)(=O)NCCC1=CCCCC1
1240 | Cc1ccc(-c2cc(C(=O)O)c3ccc(Br)cc3n2)cc1C
759 | CCNC(=O)C1CCCN(c2nc3ncn(CC(=O)Nc4ccc(C(C)C)cc4)c(=O)c3s2)C1 (stereo unspecified)
782 | Cc1ccc(-c2nnc(-c3nn(C)c4c3CN(S(=O)(=O)c3c(C)n[nH]c3C)CC4)o2)cc1
715 | CCCN1CCN(C(=O)c2cnn(-c3cc(-c4nc(C(C)(C)C)no4)ccn3)c2C)CC1
905 | COc1ccc(S(=O)(=O)Cc2nc(-c3ccccc3Br)no2)cc1
628 | CC1CCCCN1CCNC(=O)c1nc2nc(-c3ccco3)cc(C(F)(F)F)n2n1 (stereo unspecified)
994 | Cc1ccc(N2CCN(C(=O)c3cn(-c4cc(N5CCCCC5)ncn4)cn3)CC2)cc1
722 | O=C(NCCc1c[nH]c2ccccc12)C1CCN(c2ncnc3c2oc2ccccc23)CC1

RP-LC retention time [s] | SMILES
818 | Cc1onc(-c2ccccc2)c1C(=O)NC1C(=O)N2C1SC(C)(C)C2C(=O)O (stereo unspecified)
922 | O=C(C1COc2ccccc2O1)N1CCCC(c2nnc(-c3ccccc3F)s2)C1 (stereo unspecified)
830 | COc1ccc(OC)c(NC(=O)Cn2c(C)cc(-c3nnc(C4CC4)o3)c2C)c1
634 | CCC(C(=O)NCc1ccccn1)n1c2ccccc2c2cnn(C)c(=O)c21 (stereo unspecified)
760 | CC(C)N1CCN(Cc2ccc(C(=O)NCCC3=CCCCC3)cc2)C(=O)C1=O
878 | Cc1ccc(CNC(=O)C2(C)CCCN(C(=O)NCc3ccccc3)C2)cc1 (stereo unspecified)
949 | Cc1cc(C)n(-c2ccc(C(=O)N3CCN(c4ccccc4)CC3)cn2)n1
807 | Cc1ccccc1S(=O)(=O)N1CCC(CCC(=O)O)CC1
853 | CCn1cc(S(=O)(=O)NCc2ccccc2C)c2cccnc21
909 | COc1ccc(N2CCN(S(=O)(=O)c3cc(-c4nnc(C5CC5)o4)co3)CC2)cc1
936 | Cn1nc(-c2nnc(-c3ccc(F)cc3)o2)c2c1CCN(C(=O)Nc1ccc(Cl)cc1)C2
645 | CCC(C(=O)NCCCN1CCCC1)n1nc(C)c2nn(-c3ccccc3)c(C)c2c1=O (stereo unspecified)
781 | COc1ccc(-c2nc(NCc3ccco3)ncc2C(=O)O)cc1
1010 | CCn1ccc(C(=O)Nc2ccc(OCc3nnc(-c4ccc(Cl)cc4)o3)cc2)n1
609 | c1cc(-c2nc(-c3ccc4c(c3)ncn4CCN3CCCCC3)no2)cs1
706 | CCCCS(=O)(=O)N1CCC(c2cc(N)on2)CC1
1030 | Cc1ccc2c(c1)OCC(=O)N2Cc1nc(-c2ccc3c(c2)OCO3)no1
846 | O=c1ccc(N2CCCN(S(=O)(=O)c3ccc(F)cc3)CC2)nn1-c1ccccc1
